Data published in patent US20130189764A1, “SELECTIVE GROWTH MEDIA” (Oxide Limited, priority 2000, published 2013).
Values after ≈ are worked out from the molar mass of the structure shown.

How the values were obtained:
Type in all cases: cell-based
[1] = test system: Citrobacter freundii, Enterobacter aerogenes, Enterobacter cloacae; test: Bioscreen growth in Lab-Lemco broth (Example 9A), other strains; settings: 128 μg/ml, Lab-Lemco broth pH 6.0, 37° C., other strains tested
Description: (§1) […] […] Plates were then covered, incubated at 37° C., and the opacity of the organism suspensions measured using a Bioscreen instrument (a semi-automated microbiological growth analyser, available from Thermolabsystems, Ashford, Middlesex, U.K.).
(§2) The results are shown in FIG. 13, which is a graph of optical density against time (in hours). The optical density readings were taken in “wide band” (wb) mode, i.e. using white light without any filter.

[2] = test system: Salmonella virchow OCC703; test: MIC from Bioscreen growth curves in various media (Example 13)
Description: (§3) In general, media containing a higher concentration of short chain peptides, for example hydrolysed casein, reduced the effectiveness of the inhibitor. Thus, Pyr-AEP was dissolved in deionised water (51.2 mg/ml), filter sterilised, and amounts of the solution added to autoclaved Bacteriological Peptone, Casein Hydrolysate, Lab-Lemco broth and Proteose Peptone (20 g/l; pH 7.3) to give a dilution series of 1,477, 739, 369, 185 μg/ml. Volumes ([…]) of these solutions were then pipetted into the wells of Bioscreen microtitre plates and 30 μl quantities of 1 in 10,000 dilutions of overnight cultures of Citrobacter freundii OCC 261, Enterobacter aerogenes OCC 720, Salmonella enteritidis OCC 723 and Salmonella virchow OCC 703 added. Plates were then covered, incubated at 37° C., and the opacity of the organism suspensions, measured using a Bioscreen instrument.

[3] = test system: Enterobacter aerogenes OCC720; test: as above
Description: as §3

[4] = test system: Citrobacter freundii OCC261; test: as above
Description: as §3

[5] = test system: Salmonella enteritidis OCC723; test: as above
Description: as §3

[6] = test system: Salmonella typhimurium OCC 626; test: mixed culture viable count in Nutrient Broth No. 2 (Example 9B); settings: 128 μg/ml, Nutrient Broth No. 2, mixed culture with Citrobacter, 37° C.
Description: (§4) L-Pyroglutamyl-L-aminoethylphosphonate was added to Oxoid Nutrient Broth No. 2 (final concentration=128 μg/ml) contained in a universal tube in a water bath at 37° C. Citrobacter freundii OCC 370 and Salmonella typhimurium OCC 626 were grown overnight in Nutrient Broth No. 2 at 37° C., diluted 1 in 1000 in Maximal Recovery Diluent and amounts added to the Nutrient Broth to give final concentrations of about 10^4 cfu/ml of each organism. At intervals samples were taken and spread on XLD and the number of red colonies with black centres enumerated as Salmonella and yellow ones as Citrobacter.
(§5) The results are shown in FIG. 14, which is a graph of Log10 viable count (cfu/ml) against time (in hours). The plots for C. freundii are shown by lozenge symbols, whist those for S. typhimurium are shown by squares. Filled symbols and solid lines show results in the presence of Pyr-AEP, empty symbols and dotted lines show results in the absence of Pyr-AEP.

[7] = test system: Citrobacter freundii OCC 370; test: as above; settings: 128 μg/ml, Nutrient Broth No. 2, mixed culture with Salmonella, 37° C.
Description: as §4, §5

[8] = test system: Salmonella typhimurium and Salmonella worthington; test: Bioscreen growth in Lab-Lemco broth (Example 9A), Salmonella strains; settings: 128 μg/ml, Lab-Lemco broth pH 6.0, 37° C.
Description: as §1, §2

## C[C@H](NC(=O)[C@@H]1CCC(=O)N1)P(=O)(O)O [Pyr-AEP, L-pyroglutamyl-L-1-aminoethylphosphonic acid]
[1]
  growth (optical density) in presence of the agent: inhibited
[2]; Salmonella virchow OCC703, Bacteriological Peptone
  Minimum inhibitory concentration: 671 µg/mL (≈ 2.84 mM)
[2]; Salmonella virchow OCC703, Casein Hydrolysate
  Minimum inhibitory concentration: >1343 µg/mL
[2]; Salmonella virchow OCC703, Lab-Lemco
  Minimum inhibitory concentration: 1343 µg/mL (≈ 5.69 mM)
[2]; Salmonella virchow OCC703, Proteose Peptone
  Minimum inhibitory concentration: 1343 µg/mL (≈ 5.69 mM)
[3]; Enterobacter aerogenes OCC720, Bacteriological Peptone
  Minimum inhibitory concentration: 671 µg/mL (≈ 2.84 mM)
[3]; Enterobacter aerogenes OCC720, Casein Hydrolysate
  Minimum inhibitory concentration: >1343 µg/mL
[3]; Enterobacter aerogenes OCC720, Lab-Lemco
  Minimum inhibitory concentration: 336 µg/mL (≈ 1.42 mM)
[3]; Enterobacter aerogenes OCC720, Proteose Peptone
  Minimum inhibitory concentration: >1343 µg/mL
[4]; Citrobacter freundii OCC261, Bacteriological Peptone
  Minimum inhibitory concentration: 168 µg/mL (≈ 0.711 mM)
[4]; Citrobacter freundii OCC261, Casein Hydrolysate
  Minimum inhibitory concentration: >1343 µg/mL
[4]; Citrobacter freundii OCC261, Lab-Lemco
  Minimum inhibitory concentration: 168 µg/mL (≈ 0.711 mM)
[4]; Citrobacter freundii OCC261, Proteose Peptone
  Minimum inhibitory concentration: 1343 µg/mL (≈ 5.69 mM)
[5]; Salmonella enteritidis OCC723, Bacteriological Peptone
  Minimum inhibitory concentration: 671 µg/mL (≈ 2.84 mM)
[5]; Salmonella enteritidis OCC723, Casein Hydrolysate
  Minimum inhibitory concentration: >1343 µg/mL
[5]; Salmonella enteritidis OCC723, Lab-Lemco
  Minimum inhibitory concentration: 1343 µg/mL (≈ 5.69 mM)
[5]; Salmonella enteritidis OCC723, Proteose Peptone
  Minimum inhibitory concentration: 1343 µg/mL (≈ 5.69 mM)
[6]
  effect on growth (Log10 viable count): no significant effect
[7]
  effect on growth (Log10 viable count): completely inhibitory
[8]
  growth (optical density) in presence of the agent: not inhibited
